The values below come from patent US7183287B2, “Substituted pyrimidinones” (Pharmacia Corporation, priority 2003, dated 2007).

For this assay, the target named is T1, human p38 kinase alpha (Homo sapiens, UniProt Q16539).
T1 construct: The coding region of the human p38a cDNA is obtained by PCR-amplification from RNA isolated from the human monocyte cell line THP.1; made in house; host or cells: E. coli DH10B (plasmid pMON 35802, pGEX 2T)
T1 sequence (Q16539 whole entry): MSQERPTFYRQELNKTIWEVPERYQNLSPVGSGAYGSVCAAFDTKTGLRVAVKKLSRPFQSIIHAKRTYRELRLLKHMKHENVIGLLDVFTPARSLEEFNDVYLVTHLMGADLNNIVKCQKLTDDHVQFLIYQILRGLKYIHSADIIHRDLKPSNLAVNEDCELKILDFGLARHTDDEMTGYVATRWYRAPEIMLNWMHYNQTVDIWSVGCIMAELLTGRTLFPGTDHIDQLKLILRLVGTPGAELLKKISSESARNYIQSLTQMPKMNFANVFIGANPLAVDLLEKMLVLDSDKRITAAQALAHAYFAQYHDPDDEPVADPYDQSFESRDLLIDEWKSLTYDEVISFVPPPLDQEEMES
The assay is described as follows: p38 kinase alpha in vitro assay (phosphorylation of PHAS-I with 32P-ATP or of EGFRP with 33P-ATP). The format is biochemical. On the procedure: The ability of compounds to inhibit human p38 kinase alpha is evaluated using two in vitro assay methods. In the first method, activated human p38 kinase alpha phosphorylates a biotinylated substrate, PHAS-I (phosphorylated heat and acid stable protein-insulin inducible), in the presence of gamma ^32P-ATP (^32P-ATP). PHAS-I is biotinylated prior to the assay and provides a means of capturing the substrate, which is phosphorylated during the assay. p38 Kinase is activated by MKK6. Compounds were tested in 10 fold serial dilutions over the range of 100 μM to 0.001 μM using 1% DMSO. Each concentration of inhibitor is tested in triplicate.
All reactions are carried out in 96 well polypropylene plates. Each reaction well contains 25 mM HEPES pH 7.5, 10 mM magnesium acetate and 50 μM unlabeled ATP. Activation of p38 is required to achieve sufficient signal in the assay. Biotinylated PHAS-I is used at 1–2 μg per 50 μl reaction volume, with a final concentration of 1.5 μM. Activated human p38 kinase alpha is used at 1 μg per 50 μl reaction volume representing a final concentration of 0.3 μM. Gamma ^32P-ATP is used to follow the phosphorylation of PHAS-I. ^32P-ATP has a specific activity of 3000 Ci/mmol and is used at 1.2 μCi per 50 μl reaction volume. The reaction proceeds either for one hour or overnight at 30° C.
Following incubation, 20 μl of reaction mixture is transferred to a high capacity streptavidin coated filter plate (SAM-streptavidin-matrix, Promega) prewetted with phosphate buffered saline. […] The plates are sealed and counted.
A second assay format is also employed that is based on p38 kinase alpha induced phosphorylation of EGFRP (epidermal growth factor receptor peptide, a 21 mer) in the presence ^33P-ATP. […] Compounds were evaluated in 50 μl reaction volumes in the presence of 25 mM Hepes pH 7.5, 10 mM magnesium acetate, 4% glycerol, 0.4% bovine serum albumin, 0.4 mM DTT, 50 μM unlabeled ATP, 25 μg EGFRP (200 μM), and 0.05 μCi ^33P-ATP. […] 150 μl of Microscint 40 is then added to each well of the Microlite plate, and the plate is sealed, mixed, and counted.
One may read the IC50 as the point on the concentration scale where inhibition reaches its midpoint. A lower IC50 goes with inhibition by little substance. For `O=c1c(Br)c(OCc2ccccc2)ncn1Cc1ccccc1`, the half-maximal inhibitory concentration (IC50) is below 5 µM.
The value for `COC(=O)c1ccc(C)c(-n2c(C)nc(OCc3ccc(F)cc3F)c(Br)c2=O)c1` was below 5 µM; that for `CNC(=O)c1ccc(C)c(-n2c(C)nc(OCc3ccc(F)cc3F)c(Br)c2=O)c1` was below 5 µM.
